Earlier results in US20030114418A1, “Method for the treatment and prevention of pain and inflammation with glucosamine and a cyclooxygenase-2 selective inhibitor and compositions therefor” (Pharmacia Corporation, priority 2001, published 2003).

How the values were obtained:
[1] = system: Cox-2
[2] = system: knee osteoarthritis; settings: patients with knee osteoarthritis, 1500 mg/day, 3 years
[3] = system: human chondrocytes

| Structure (SMILES) | selectivity for the inhibition of Cox-2 versus Cox-1 [1] | also measured |
| --- | --- | --- |
| CC1(C)CC[C@]2(C(=O)O)CC[C@]3(C)C(=CC[C@@H]4[C@@]5(C)CC[C@H](O)C(C)(C)[C@@H]5CC[C@]43C)[C@@H]2C1 [oleanic acid] | not substantially more selective for the inhibition of Cox-2 than for Cox-1 | – |
| C[C@H]1[C@H](C)CC[C@]2(C(=O)O)CC[C@]3(C)C(=CC[C@@H]4[C@@]5(C)CC[C@H](O)C(C)(C)[C@@H]5CC[C@]43C)[C@H]12 [ursolic acid] | not substantially more selective for the inhibition of Cox-2 than for Cox-1 | – |
| N[C@H]1C(O)O[C@H](CO)[C@@H](O)[C@@H]1O.O=S(=O)(O)O (stereo partly shown) [glucosamine sulfate] | – | joint-space loss [2]: no significant joint-space loss |
| CC(=O)N[C@H]1C(O)O[C@H](CO)[C@@H](O)[C@@H]1O (stereo partly shown) [N-acetylglucosamine] | – | effect on il-1beta-mediated activation of human chondrocytes [3]: prevent il-1beta-mediated activation of human chondrocytes |
